Results from ChEMBL document CHEMBL2176958, “Novel aromatase inhibitors by structure-guided design” (J Med Chem, 2012).

How the values were obtained:
[1] = (§1) Cytotoxicity against human MCF7a cells expressing Tet-off-3betaHSD1-Arom assessed as inhibition of TST-stimulated cell proliferation measured after 10 days; type: functional, cell-based; details: 240 h
MCF7a = experiment: as §1; type: functional, cell-based
Aromatase = biological target: T1, Aromatase (Homo sapiens, UniProt P11511); experiment: Inhibition of human placental aromatase using [3H]-1beta-androstenedione as substrate after 16 hrs by [3H]-water method; details: for inhibition (INH): human, 16 h
T1 sequence (P11511 whole entry): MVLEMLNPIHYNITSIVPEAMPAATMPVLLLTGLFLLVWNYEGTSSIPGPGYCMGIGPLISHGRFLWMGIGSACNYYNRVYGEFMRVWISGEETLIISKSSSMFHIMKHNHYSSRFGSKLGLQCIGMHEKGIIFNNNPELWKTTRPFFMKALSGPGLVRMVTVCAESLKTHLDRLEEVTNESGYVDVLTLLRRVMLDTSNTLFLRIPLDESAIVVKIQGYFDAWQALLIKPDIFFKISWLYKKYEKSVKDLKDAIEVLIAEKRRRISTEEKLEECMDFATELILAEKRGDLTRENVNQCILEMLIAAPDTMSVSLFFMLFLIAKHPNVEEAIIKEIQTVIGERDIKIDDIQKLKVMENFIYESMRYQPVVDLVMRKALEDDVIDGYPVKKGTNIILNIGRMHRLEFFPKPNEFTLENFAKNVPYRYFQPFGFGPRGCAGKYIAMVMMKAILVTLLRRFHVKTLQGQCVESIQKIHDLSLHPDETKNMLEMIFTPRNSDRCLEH

Compound | EC50 [1] | inhibition (MCF7a) | IC50 (Aromatase) | inhibition (INH) (Aromatase)
CC#CCO[C@@H]1C[C@@H]2[C@H](CC[C@]3(C)C(=O)CC[C@@H]23)[C@@]2(C)C=CC(=O)C=C12 | 1.7 nM | Dose-dependent effect | 112 nM | Dose-dependent effect
N#Cc1ccc(C(c2ccc(C#N)cc2)n2cncn2)cc1 [LETROZOLE] | 0.004 nM | – | – | Dose-dependent effect
CCCC#CCO[C@@H]1C[C@@H]2[C@H](CC[C@]3(C)C(=O)CC[C@@H]23)[C@@]2(C)C=CC(=O)C=C12 | 3.4 nM | Dose-dependent effect | 83 nM | Dose-dependent effect
CCCCC#CCO[C@@H]1C[C@@H]2[C@H](CC[C@]3(C)C(=O)CC[C@@H]23)[C@@]2(C)C=CC(=O)C=C12 | 5.4 nM | Dose-dependent effect | 181 nM | Dose-dependent effect
CCO[C@@H]1C[C@@H]2[C@H](CC[C@]3(C)C(=O)CC[C@@H]23)[C@@]2(C)C=CC(=O)C=C12 | – | – | 18100 nM | Dose-dependent effect
CCC#CCO[C@@H]1C[C@@H]2[C@H](CC[C@]3(C)C(=O)CC[C@@H]23)[C@@]2(C)C=CC(=O)C=C12 | 0.03 nM | Dose-dependent effect | – | Dose-dependent effect
C[C@]12C=CC(=O)C=C1[C@H](OCC#CCO)C[C@@H]1[C@@H]2CC[C@]2(C)C(=O)CC[C@@H]12 | 0.3 nM | Dose-dependent effect | 20 nM | Dose-dependent effect
CO[C@@H]1C[C@@H]2[C@H](CC[C@]3(C)C(=O)CC[C@@H]23)[C@@]2(C)C=CC(=O)C=C12 | – | – | 5200 nM | Dose-dependent effect
C[C@]12CCC(=O)C(O)=C1CC[C@@H]1[C@@H]2CC[C@]2(C)C(=O)CC[C@@H]12 [FORMESTANE] | – | – | 48.6 nM | Dose-dependent effect
CCCCCCCC#CCO[C@@H]1C[C@@H]2[C@H](CC[C@]3(C)C(=O)CC[C@@H]23)[C@@]2(C)C=CC(=O)C=C12 | – | Dose-dependent effect | 2180 nM | Dose-dependent effect
